Test results from patent US20200392181A1, “PEPTIDE COMPOSITIONS AND RELATED METHODS” (Allegro Pharmaceuticals, LLC, priority 2017, published 2020).

Test system: ischemia-induced retinal neovascularization
Assay: Mouse model of retinopathy of prematurity (ROP), ischemia-induced retinal neovascularization
Assay type: in vivo, C57BI/6 mice
Details: addition of three parts taurine to one part of the peptide
Method: Each test compound was prepared in sterile water for injection, containing 0.08 mg/100 μL of sodium chloride and 0.005 mg/100 μL of trisodium citrate, the concentration of the peptide was at a concentration of 2.0 mg/100 μL and pH=2.7 and dispensed by sterile filtration into sterile vials. The Taurine test compound was obtained from Sigma Aldrich company, which was >99% pure, and prepared the same way as mentioned previously, having a concentration of 3.0 mg/100 μL. […]
To screen the test compounds for activity against ischemia-induced retinal neovascularization, the well-established model of retinopathy of prematurity (ROP) in mice was used. Litters of C57BI/6 mice were placed in 75% oxygen at postnatal day (P) 7, returned to room air at day (P) 12. The Pups were randomly assigned to treatment groups of 4 to 10 animals per group. The pups were treated as follows: Treatment eyes were treated by intravitreal injection of 1.0 microliters of solution containing 20 micrograms of Test Compound.
On post-natal day 17, 5 days after intravitreal injection, the animals were sacrificed, the retinas were flat mounted and the area of neovascularization in each retina was determined by Fluorescein-dextran image analysis. […]

## Glycinyl-Arginyl-Glycinyl-Cysteic(Acid)-Threonyl-Proline [ALG-1001]
  neovascularization suppressing activity on addition of taurine: improves the neovascularization suppressing activity
